What was measured:
Conditions in all cases: 72 h
BV-173 [1] = assay: cell viability (% survival relative to DMSO control, bortezomib = 0%); higher = less cytotoxic
Outline: (§1)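 Percent survival is reported as the mean of duplicate wells. Cells from 10 AML and 5 CML lines were plated in 384-well plates containing compounds at 1, 10, 100, 1000 or 10000 nM and kept for 72 h at 37 °C in 5% CO2. Readout used CellTiter-Glo luminescence, scaled so that vehicle equals 100% and a 10 µM positive control equals 0%.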

NOMO-1 [2] = assay: as above
Outline: as §1

KG-1 [3] = assay: as above
Outline: as §1

KU-812 [4] = assay: as above
Outline: as §1

LAMA-84 [5] = assay: as above
Outline: as §1

HEL [6] = assay: as above
Outline: as §1

SHI-1 [7] = assay: as above
Outline: as §1

K-562 [8] = assay: as above
Outline: as §1

MOLM-13 [9] = assay: as above
Outline: as §1

KCL-22 [10] = assay: as above
Outline: as §1

THP-1 [11] = assay: as above
Outline: as §1

HL-60 [12] = assay: as above
Outline: as §1

ML-2 [13] = assay: as above
Outline: as §1

MV4-11 [14] = assay: as above
Outline: as §1

Mono-Mac-6 [15] = assay: as above
Outline: as §1

BV-173 [16] = tested on: BV-173
Outline: (§2)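 Fifteen myeloid leukaemia lines in RPMI 1640 were treated for 72 h at 37 °C and 5% CO2 with five tenfold doses from 1 to 10,000 nM, in duplicate. ATP luminescence was normalised to vehicle and to a positive control at 10 µM, then fitted with a four-parameter log-logistic model. The IC50 came from these fits.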

NOMO-1 [17] = tested on: NOMO-1
Outline: as §2

KG-1 [18] = tested on: KG-1
Outline: as §2

KU-812 [19] = tested on: KU-812
Outline: as §2

LAMA-84 [20] = tested on: LAMA-84
Outline: as §2

HEL [21] = tested on: HEL
Outline: as §2

SHI-1 [22] = tested on: SHI-1
Outline: as §2

K-562 [23] = tested on: K-562
Outline: as §2

MOLM-13 [24] = tested on: MOLM-13
Outline: as §2

KCL-22 [25] = tested on: KCL-22
Outline: as §2

THP-1 [26] = tested on: THP-1
Outline: as §2

HL-60 [27] = tested on: HL-60
Outline: as §2

ML-2 [28] = tested on: ML-2
Outline: as §2

MV4-11 [29] = tested on: MV4-11
Outline: as §2

Mono-Mac-6 [30] = tested on: Mono-Mac-6
Outline: as §2

O=c1c(-c2ccc(O)cc2)coc2cc(O[C@@H]3O[C@H](CO)[C@@H](O)[C@H](O)[C@H]3O)ccc12 [Daidzin]
cell viability [%]
Conditions | 1 nM | 10 nM | 100 nM | 1000 nM | 10000 nM
BV-173 [1] | 94 | 87.4 | 92.4 | 125 | 91.8
HEL [6] | 93 | 93.7 | 107 | 105 | 102
HL-60 [12] | 107 | 99.6 | 100 | 93.9 | 92.7
K-562 [8] | 92.1 | 98.9 | 98.5 | 111 | 106
KCL-22 [10] | 88.6 | 98.9 | 103 | 109 | 111
KG-1 [3] | 99 | 96.6 | 100 | 97.6 | 98.6
KU-812 [4] | 90.9 | 93.6 | 100 | 99.5 | 87.5
LAMA-84 [5] | 102 | 91 | 96.8 | 99.2 | 97.9
ML-2 [13] | 103 | 90.1 | 95.8 | 112 | 97.8
MOLM-13 [9] | 83.9 | 107 | 105 | 99.8 | 99.3
MV4-11 [14] | 91.6 | 84 | 106 | 133 | 98.8
Mono-Mac-6 [15] | 90.8 | 88.2 | 94.6 | 107 | 83.2
NOMO-1 [2] | 93.4 | 99.7 | 99.4 | 101 | 103
SHI-1 [7] | 93.7 | 106 | 108 | 107 | 103
THP-1 [11] | 97.8 | 98.5 | 97.5 | 106 | 95.4

Conditions | IC50 (cell viability) [µM]
BV-173 [16] | > 10
HEL [21] | > 10
HL-60 [27] | > 10
K-562 [23] | > 10
KCL-22 [25] | > 10
KG-1 [18] | > 10
KU-812 [19] | > 10
LAMA-84 [20] | > 10
ML-2 [28] | > 10
MOLM-13 [24] | > 10
MV4-11 [29] | > 10
Mono-Mac-6 [30] | > 10
NOMO-1 [17] | > 10
SHI-1 [22] | > 10
THP-1 [26] | > 10

CC(C)CC(=O)N[C@H](C(=O)N[C@H](C(=O)N[C@@H](CC(C)C)[C@@H](O)CC(=O)N[C@@H](C)C(=O)N[C@@H](CC(C)C)[C@@H](O)CC(=O)O)C(C)C)C(C)C [Pepstatin A]
cell viability [%]
Conditions | 1 nM | 10 nM | 100 nM | 1000 nM | 10000 nM
BV-173 [1] | 94.2 | 86.5 | 106 | 101 | 88.4
HEL [6] | 98.8 | 88.3 | 95.8 | 105 | 95.3
HL-60 [12] | 99.7 | 73.7 | 111 | 144 | 84.6
K-562 [8] | 95.1 | 85.5 | 96.9 | 101 | 87.9
KCL-22 [10] | 97.4 | 74.5 | 101 | 101 | 98.7
KG-1 [3] | 99.1 | 77.5 | 96.8 | 90.7 | 93.9
KU-812 [4] | 102 | 101 | 96.8 | 111 | 95.9
LAMA-84 [5] | 92.2 | 87.2 | 103 | 96.2 | 103
ML-2 [13] | 96.5 | 84.5 | 105 | 106 | 91.8
MOLM-13 [9] | 109 | 93.8 | 109 | 126 | 86.5
MV4-11 [14] | 87.7 | 77.9 | 90 | 92.3 | 81.8
Mono-Mac-6 [15] | 101 | 83.7 | 104 | 100 | 101
NOMO-1 [2] | 98.3 | 86.8 | 106 | 104 | 102
SHI-1 [7] | 93 | 87.5 | 111 | 105 | 105
THP-1 [11] | 96.3 | 87.1 | 103 | 96.1 | 97

Conditions | IC50 (cell viability) [µM]
BV-173 [16] | > 10
HEL [21] | > 10
HL-60 [27] | > 10
K-562 [23] | > 10
KCL-22 [25] | > 10
KG-1 [18] | > 10
KU-812 [19] | > 10
LAMA-84 [20] | > 10
ML-2 [28] | > 10
MOLM-13 [24] | > 10
MV4-11 [29] | > 10
Mono-Mac-6 [30] | > 10
NOMO-1 [17] | > 10
SHI-1 [22] | > 10
THP-1 [26] | > 10

Source: the supplement of paper PMC8671470
